Assay results reported in article PMC4549712, “Inhibition of human GLUT1 and GLUT5 by plant carbohydrate products; insights into transport specificity” (Scientific Reports, 2015).
Where “and” joins values, the source holds several entries; their conditions need not be identical. Identical values can stand only once.

Key:
GLUT5A396W = biological target: T1, GLUT5A396W (Homo sapiens, UniProt P22732, A396W); assay: entrance counter-flow transport assay, fructose transport by GLUT5A396W proteoliposomes; type: biochemical
T1 construct: Full length DNA was subcloned into pFastBac1 (Life Technologies) vector with a N-terminal hexahistidine tag; hexahistidine (thrombin-cleavable) (N, cleaved yes); made in house; host or cells: Sf21 insect cells (baculovirus, pFastBac1)
T1 sequence (P22732 1-501 A396W): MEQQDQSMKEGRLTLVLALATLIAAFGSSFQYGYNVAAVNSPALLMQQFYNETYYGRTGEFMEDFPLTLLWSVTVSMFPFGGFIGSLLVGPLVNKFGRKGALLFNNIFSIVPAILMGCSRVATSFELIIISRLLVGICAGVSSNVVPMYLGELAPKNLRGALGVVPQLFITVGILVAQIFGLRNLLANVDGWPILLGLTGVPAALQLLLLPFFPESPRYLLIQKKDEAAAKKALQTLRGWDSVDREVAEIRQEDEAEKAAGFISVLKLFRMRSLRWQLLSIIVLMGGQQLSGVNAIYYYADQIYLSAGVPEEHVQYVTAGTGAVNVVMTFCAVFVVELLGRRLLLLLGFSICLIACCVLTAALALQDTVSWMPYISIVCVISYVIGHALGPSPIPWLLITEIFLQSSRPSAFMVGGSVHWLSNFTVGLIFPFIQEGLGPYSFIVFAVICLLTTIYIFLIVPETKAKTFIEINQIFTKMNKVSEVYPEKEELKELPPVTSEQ
Procedure: We expressed and purified GLUT1W388A and GLUT5A396W. Purified mutant proteins were reconstituted into proteoliposomes and activity was determined by entrance counter-flow transport assay.
cDNAs of GLUT1 and GLUT5 were purchased from Open Biosystems (GE Healthcare). Full length DNA was subcloned into pFastBac1 (Life Technologies) vector with a N-terminal hexahistidine tag. Bacmids were generated in DH10Bac E. coli cells (Life Technologies). Baculoviruses were produced using Cellfectin II Reagent and amplified in Sf21 insect cells (Life Technologies). Cells were maintained at 26 °C, and P1 (10^6 pfu/mL) was collected from infected cells after 72 hours. Sf21 cells were propagated in HyClone SFX-Insect media (GE Healthcare), supplemented with 5% fetal bovine serum (Biowest), antibiotics (100 units/mL Penicillin G and 100 μg/mL streptomycin sulfate) and amphotericin B (2.5 μg/mL). For recombinant protein expression, Sf21 cells in suspension culture at 2 × 10^6 cells/ml were infected with P3 viral stock (10^8 pfu/mL), at an MOI of 1.0 pfu/cell. Four days after viral infection, cells from 2 L culture were collected by centrifugation at 2,000 × g and 25 °C. […]

human GLUT1 = biological target: T2, human GLUT1 (Homo sapiens, UniProt P11166); assay: entrance counter-flow transport assay, GLUT1-mediated glucose transport in proteoliposomes; type: biochemical
T2 construct: Full length DNA was subcloned into pFastBac1 (Life Technologies) vector with a N-terminal hexahistidine tag; hexahistidine (thrombin-cleavable) (N, cleaved yes); made in house; host or cells: Sf21 insect cells (baculovirus, pFastBac1)
T2 sequence (P11166 1-492): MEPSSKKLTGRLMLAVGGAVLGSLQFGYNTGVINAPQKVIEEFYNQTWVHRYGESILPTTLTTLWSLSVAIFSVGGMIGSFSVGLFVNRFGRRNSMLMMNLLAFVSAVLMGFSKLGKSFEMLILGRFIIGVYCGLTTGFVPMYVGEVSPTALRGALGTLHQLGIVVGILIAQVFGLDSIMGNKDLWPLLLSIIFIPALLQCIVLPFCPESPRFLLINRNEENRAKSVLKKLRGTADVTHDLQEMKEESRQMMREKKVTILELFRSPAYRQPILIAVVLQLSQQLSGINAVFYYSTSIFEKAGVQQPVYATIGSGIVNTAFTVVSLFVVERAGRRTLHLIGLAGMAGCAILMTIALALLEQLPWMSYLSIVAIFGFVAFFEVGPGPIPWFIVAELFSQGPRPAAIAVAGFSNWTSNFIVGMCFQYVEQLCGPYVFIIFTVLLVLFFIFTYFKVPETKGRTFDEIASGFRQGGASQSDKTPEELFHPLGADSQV
Procedure: Human GLUT1 and GLUT5 were expressed recombinantly in insect cell culture. The purified proteins were reconstituted into proteoliposomes. To measure the inhibition of GLUT1 or GLUT5 transport activity we used entrance counter-flow transport assay. In GLUT1 and GLUT5 proteoliposomes, substrate transport reached steady state after one minute incubation at room temperature.
Proteoliposomes were generated according to the protocol from[30] with minor modifications. Liposomes were produced from a 95/5% (w/w) mix of soy phosphatidylcholine and cholesterol (Avanti Polar Lipids). Briefly, hexane-washed and vacuum-dried lipids were resuspended to 20 mg/ml in 100 mM KPi (pH 7.5), and then subjected to 11 freeze-and-thaw cycles in liquid nitrogen and room temperature water. The lipid mixture was extruded through a 0.1 μm polycarbonate filter. Prepared liposomes were destabilized with 4 mM Triton X-100 and mixed with purified protein in a 100:1 (w/w) ratio in 100 mM KPi (pH 7.5) 20% (v/v) glycerol, 200 mM (glucose or fructose). Detergent was removed by several additions of SM2 BioBeads (BioRad) and incubated overnight at 4 °C. After filtering out the BioBeads, proteoliposomes were diluted with 100 mM KPi (pH 7.5) 200 mM (glucose or fructose), and then collected by ultracentrifugation, at 200,000 × g and 4 °C, for 1 hour. The proteoliposomes pellet was resuspended in the above buffer so that O.D.600nm was ~30.
To measure hexose transport, we utilized entrance counter-flow assay. Transport was performed in a volume of 100 μL of 100 mM KPi (pH 7.5) buffer containing radioactive ^14C-hexose (4 μM fructose or 5 μM glucose) with inhibitors added before initiation of transport. Radioactive substrate uptake in GLUT1 and GLUT5 (wild-type or mutant) proteoliposomes was constant between 1 and 2 mins. The reaction was started by the addition of 3 μL concentrated proteoliposomes to the above solution and incubated at room temperature; the transport was stopped after one minute by addition of ice-chilled quench buffer [100 mM KPi (pH 5.5) and 100 mM LiCl]. The solution was filtered through a 0.4 μm pore size cellulose nitrate membrane filter (Whatman), and the filter was washed three times with quench buffer. The membrane filter was placed into a vial filled with BioSafe II scintillation liquid (Research Products International Corp.), and radioactivity was quantified with LS 6500 scintillation counter (Beckman). […] The transport assays were unaffected by 5% DMSO. Data is presented as relative activity normalized to radioactivity of no inhibitor added as 100% and empty proteoliposomes as 0%. Kinetic parameters were fitted by nonlinear algorithm plots using Prism (GraphPad Software).

C=C1C[C@@]23CC[C@H]4[C@@](C)(CCC[C@@]4(C)C(=O)O[C@@H]4O[C@H](CO)[C@@H](O)[C@H](O)[C@H]4O)[C@@H]2CC[C@]1(O[C@@H]1O[C@H](CO)[C@@H](O)[C@H](O)[C@H]1O)C3 [Rub, Rubusoside]
IC50 (GLUT5A396W): 10.3 mM and 10 mM
inhibition of GLUT1 glucose transport activity (human GLUT1; 20 mM): reducing activity to background levels
IC50 (human GLUT1; entrance counter-flow): 4.6 mM and ~5 mM
